# Results taken from ChEMBL document CHEMBL4840323, “Discovery of an Orally Bioavailable Small-Molecule Inhibitor for the β-Catenin/B-Cell Lymphoma 9 Protein-Protein Interaction” (J Med Chem, 2021).
# Molecular target: T1, beta-catenin-B-cell lymphoma 9 protein complex (Homo sapiens, UniProt P35222)
# T1 sequence (P35222 whole entry): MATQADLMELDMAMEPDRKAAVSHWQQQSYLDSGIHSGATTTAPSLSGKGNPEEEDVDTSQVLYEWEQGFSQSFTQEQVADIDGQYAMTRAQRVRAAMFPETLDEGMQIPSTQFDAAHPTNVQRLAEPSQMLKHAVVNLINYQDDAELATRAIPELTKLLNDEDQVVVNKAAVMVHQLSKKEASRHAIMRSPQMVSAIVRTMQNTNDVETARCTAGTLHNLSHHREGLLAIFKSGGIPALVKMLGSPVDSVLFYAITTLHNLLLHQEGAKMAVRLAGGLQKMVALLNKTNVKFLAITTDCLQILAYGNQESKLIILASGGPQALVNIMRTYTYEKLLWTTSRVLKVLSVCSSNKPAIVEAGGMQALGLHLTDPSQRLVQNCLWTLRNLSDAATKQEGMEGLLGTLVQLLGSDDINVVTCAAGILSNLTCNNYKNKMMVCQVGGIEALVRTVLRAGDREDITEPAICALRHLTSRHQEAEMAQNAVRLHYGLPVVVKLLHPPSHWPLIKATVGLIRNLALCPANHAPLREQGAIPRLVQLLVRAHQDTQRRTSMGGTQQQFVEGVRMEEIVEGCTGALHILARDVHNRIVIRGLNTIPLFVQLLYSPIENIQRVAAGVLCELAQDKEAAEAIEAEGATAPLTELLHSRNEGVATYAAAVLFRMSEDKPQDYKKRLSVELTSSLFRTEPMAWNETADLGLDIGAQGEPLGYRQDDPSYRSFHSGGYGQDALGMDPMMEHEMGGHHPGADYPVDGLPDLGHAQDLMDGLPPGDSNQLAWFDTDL
# T1 sequence (O00512 whole entry): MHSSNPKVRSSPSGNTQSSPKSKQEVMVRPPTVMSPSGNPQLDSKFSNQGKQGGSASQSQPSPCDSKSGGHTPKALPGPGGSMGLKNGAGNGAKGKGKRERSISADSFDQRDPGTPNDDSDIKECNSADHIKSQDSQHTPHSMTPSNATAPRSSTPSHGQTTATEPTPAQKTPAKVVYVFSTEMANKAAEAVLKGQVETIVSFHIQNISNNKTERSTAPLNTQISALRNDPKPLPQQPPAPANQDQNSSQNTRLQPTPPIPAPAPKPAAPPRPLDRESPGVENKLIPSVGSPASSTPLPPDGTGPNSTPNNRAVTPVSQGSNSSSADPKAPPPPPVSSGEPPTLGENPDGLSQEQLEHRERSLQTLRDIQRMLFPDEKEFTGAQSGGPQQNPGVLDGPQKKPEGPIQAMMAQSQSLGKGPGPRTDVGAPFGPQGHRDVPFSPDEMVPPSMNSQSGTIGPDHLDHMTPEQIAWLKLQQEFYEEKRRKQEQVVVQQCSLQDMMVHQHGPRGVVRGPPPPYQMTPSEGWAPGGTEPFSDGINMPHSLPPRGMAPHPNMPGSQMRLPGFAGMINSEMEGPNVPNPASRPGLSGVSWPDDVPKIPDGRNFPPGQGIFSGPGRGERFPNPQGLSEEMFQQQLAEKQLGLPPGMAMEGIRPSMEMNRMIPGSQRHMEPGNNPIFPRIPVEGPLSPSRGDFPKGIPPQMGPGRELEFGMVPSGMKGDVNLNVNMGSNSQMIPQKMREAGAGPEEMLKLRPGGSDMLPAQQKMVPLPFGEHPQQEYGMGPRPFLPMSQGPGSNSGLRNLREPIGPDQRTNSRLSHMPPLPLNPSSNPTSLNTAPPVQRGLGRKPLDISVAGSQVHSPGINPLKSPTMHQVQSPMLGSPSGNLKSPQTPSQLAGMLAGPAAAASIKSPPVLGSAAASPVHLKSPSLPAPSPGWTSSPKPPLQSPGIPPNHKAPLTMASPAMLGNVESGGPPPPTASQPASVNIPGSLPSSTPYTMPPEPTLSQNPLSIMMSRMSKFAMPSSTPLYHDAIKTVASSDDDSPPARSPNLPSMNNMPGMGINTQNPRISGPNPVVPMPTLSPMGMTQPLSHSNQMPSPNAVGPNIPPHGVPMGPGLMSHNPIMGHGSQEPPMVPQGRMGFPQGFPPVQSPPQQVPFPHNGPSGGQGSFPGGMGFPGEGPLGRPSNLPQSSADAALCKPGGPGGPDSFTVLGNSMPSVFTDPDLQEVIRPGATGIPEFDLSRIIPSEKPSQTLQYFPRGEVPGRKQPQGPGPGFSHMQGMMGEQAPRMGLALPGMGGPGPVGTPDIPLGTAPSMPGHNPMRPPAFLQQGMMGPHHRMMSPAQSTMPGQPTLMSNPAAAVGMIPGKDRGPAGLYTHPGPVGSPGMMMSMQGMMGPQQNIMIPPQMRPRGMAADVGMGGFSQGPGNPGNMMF
# Assay: Inhibition of C-terminal 6-His-tagged beta-catenin (1 to 781 residues) (unknown origin) expressed in Escherichia coli BL21 (DE3)-N-terminal biotinylated human BCL9 (350 to 375 residues) protein-protein interaction incubated for 1 hr by Alphascreen assay
row,IC50 [µM],Structure (SMILES)
1,3,CC(C)c1ccc(CN(C(=O)[C@@H]2CCCN(c3cccc(OC(C)(C)C(=O)N4CCNCC4)c3)C2)C2CC2)cc1
2,53,CC(C)(Oc1cccc(N2CCC[C@@H](C(=O)N(Cc3ccc(-c4cn[nH]c4)cc3)C3CC3)C2)c1)C(=O)N1CCCCC1
3,5.3,CC(C)(Oc1cccc(N2CCC[C@@H](C(=O)N(Cc3ccc(C4CCCCC4)cc3)C3CC3)C2)c1)C(=O)N1CCNCC1
4,82,CC(C)(Oc1cccc(N2CCC[C@@H](C(=O)N(Cc3ccc(-c4ccncc4)cc3)C3CC3)C2)c1)C(=O)N1CCNCC1
5,5.1,CC(C)c1ccc(CN(C(=O)[C@@H]2CCCN(c3cccc(OC(C)(C)C(=O)N4CCNCC4)c3)C2)C(C)C)cc1
6,14,CC(C)(Oc1cccc(N2CCC[C@@H](C(=O)N(Cc3ccc(C(C)(C)C)cc3)C3CC3)C2)c1)C(=O)N1CCNCC1
7,15,CC(C)c1ccc(CN(C)C(=O)[C@@H]2CCCN(c3cccc(OC(C)(C)C(=O)N4CCNCC4)c3)C2)cc1
8,76,Cn1cc(-c2ccc(CN(C(=O)[C@@H]3CCCN(c4cccc(OC(C)(C)C(=O)N5CCNCC5)c4)C3)C3CC3)cc2)cn1
9,> 100,CC(C)c1ccc(CNC(=O)[C@H]2CCCN(c3cccc(OC(C)(C)C(=O)O)c3)C2)cc1
10,39,CN1CCN(C(=O)C(C)(C)Oc2cccc(N3CCC[C@@H](C(=O)N(Cc4ccc(-c5cn[nH]c5)cc4)C4CC4)C3)c2)CC1
11,5.5,CC(C)(Oc1cccc(N2CCC[C@@H](C(=O)N(Cc3ccc(-c4ccsc4)cc3)C3CC3)C2)c1)C(=O)N1CCNCC1

# Molecular target: T2, Catenin beta-1 (Homo sapiens, UniProt P35222)
# T2 sequence (P35222 whole entry): T1 sequence (P35222 whole entry)
# Assay: Inhibition of beta-catenin (unknown origin) transfected in HEK293 cells cotransfected with pCMV-RL assessed as reduction in luciferase activity measured after 24 hrs by TOPFlash luciferase reporter assay
# Format: cell-based
row,IC50 [µM],Structure (SMILES)
1,> 200,CN1CCN(C(=O)C(C)(C)Oc2cccc(N3CCC[C@@H](C(=O)N(Cc4ccc(-c5cn[nH]c5)cc4)C4CC4)C3)c2)CC1

# Molecular target: T1, beta-catenin-B-cell lymphoma 9 protein complex
# Assay: Inhibition of N-terminal 6-His-tagged beta-catenin (1 to 781 residues) (unknown origin) expressed in Escherichia coli BL21 (DE3)-N-terminal biotinylated human BCL9 (350 to 375 residues) protein-protein interaction incubated for 1 hr by Alphascreen assay
row,Ki [µM],Structure (SMILES)
1,2.7,CC(C)c1ccc(CN(C(=O)[C@@H]2CCCN(c3cccc(OC(C)(C)C(=O)N4CCNCC4)c3)C2)C2CC2)cc1
2,43,CC(C)(Oc1cccc(N2CCC[C@@H](C(=O)N(Cc3ccc(-c4cn[nH]c4)cc3)C3CC3)C2)c1)C(=O)N1CCCCC1
3,4.8,CC(C)(Oc1cccc(N2CCC[C@@H](C(=O)N(Cc3ccc(C4CCCCC4)cc3)C3CC3)C2)c1)C(=O)N1CCNCC1
4,74,CC(C)(Oc1cccc(N2CCC[C@@H](C(=O)N(Cc3ccc(-c4ccncc4)cc3)C3CC3)C2)c1)C(=O)N1CCNCC1
5,4.6,CC(C)c1ccc(CN(C(=O)[C@@H]2CCCN(c3cccc(OC(C)(C)C(=O)N4CCNCC4)c3)C2)C(C)C)cc1
6,13,CC(C)(Oc1cccc(N2CCC[C@@H](C(=O)N(Cc3ccc(C(C)(C)C)cc3)C3CC3)C2)c1)C(=O)N1CCNCC1
7,14,CC(C)c1ccc(CN(C)C(=O)[C@@H]2CCCN(c3cccc(OC(C)(C)C(=O)N4CCNCC4)c3)C2)cc1
8,68,Cn1cc(-c2ccc(CN(C(=O)[C@@H]3CCCN(c4cccc(OC(C)(C)C(=O)N5CCNCC5)c4)C3)C3CC3)cc2)cn1
9,> 90,CC(C)c1ccc(CNC(=O)[C@H]2CCCN(c3cccc(OC(C)(C)C(=O)O)c3)C2)cc1
10,32,CN1CCN(C(=O)C(C)(C)Oc2cccc(N3CCC[C@@H](C(=O)N(Cc4ccc(-c5cn[nH]c5)cc4)C4CC4)C3)c2)CC1
11,5,CC(C)(Oc1cccc(N2CCC[C@@H](C(=O)N(Cc3ccc(-c4ccsc4)cc3)C3CC3)C2)c1)C(=O)N1CCNCC1
